The results in this text go back to US9242937B2, “Pharmaceutically active disubstituted pyridine derivatives” (Bayer Intellectual Property GmbH, priority 2011, dated 2016).

Each structure is given as a SMILES string.

One assay deals with T1, CDK9/Cyclin T1 (Homo sapiens, UniProt P50750).
T1 construct: purchased Invitrogen
As to the kind of experiment: LanthaScreen Eu Kinase Binding Assay, CDK9/Cyclin T1. The settings on record: tracer 236, read-out: CDK9/Cyclin T1 (activity range), Kd. The protocol: This protocol describes how the LanthaScreen Eu Kinase Binding Assay was performed to determine dissociation constants (Kd) of compounds of general formula (I) and CDK/Cyclin complexes. The principle behind this assay is based upon the binding and displacement of an Alexa Fluor 647-labeled tracer, which binds to the active site of kinases. Binding of the tracer to the kinase is detected using a Eu-labeled antibody. Simultaneous binding of both the tracer and antibody to the kinase gives rise to a FRET-signal. Binding of an inhibitor to the kinase competes for binding with the tracer, resulting in a loss of FRET.
The compounds of general formula (I) summarized in Table 1 were diluted from a 10 mM DMSO stock solution 1:10 in a total volume of 15 μL DMSO. This compound predilution was then serial diluted 1:3 over 8 steps in DMSO and briefly spun down. Each compound solution was now diluted 1:33.33 in kinase buffer (HEPES: 20 mM, pH: 8.0; MgCl2: 10 mM; DTT: 1 mM; Brij-35: 0.01%), mixed thoroughly and spun down. For every sample, 5 μL of the diluted compound were mixed with 5 μL tracer working solution (e.g. 60 nM tracer 236 in kinase buffer for CDK2/Cyclin A) and 5 μL CDK/Cyclin/Anti-GST-AB-working solution (e.g. 15 nM CDK2/Cyclin A, 1:250 dilution of Anti-GST-AB in kinase buffer) in a well of a small volume 384 well plate (Corning Incorporated, Corning, N.Y., USA; order no. 3673). The tracer concentration was adjusted to its dissociation constant (Kd) for the CDK/Cyclin, which was 30 nM for CDK2/Cyclin A, CDK7/Cyclin H and CDK9/Cyclin T1, 20 nM for CDK8/Cyclin C, and 35 nM for CDK9/Cyclin K. For negative controls, in each well 5 μL of DMSO working solution (3% DMSO diluted in kinase buffer) was mixed with 5 μL Anti-GST-AB working solution (e.g. 1:250 dilution of Anti-GST-AB in kinase buffer for CDK2/Cyclin A) and 5 μL Tracer working solution (e.g. 60 nM Tracer 236 in kinase buffer for CDK2/Cyclin A). For positive controls, in each well 5 μL of DMSO working solution (3% DMSO diluted in kinase buffer) was mixed with 5 μL CDK/Cyclin/Anti-GST-AB-working solution: (e.g. 15 nM CDK2/Cyclin A, 1:250 dilution of Anti-GST-AB in kinase buffer) and 5 μL Tracer working solution (e.g. 60 nM Tracer 236 in kinase buffer for CDK2/Cyclin A). Positive and negative controls were calculated from at least 8 different sample wells. The 384 well plates were mixed in a Teleshaker plate mixer (Beckman Coulter, Brea, Calif., USA) at 2000 rpm for 40 sec, and incubated for 1 h at room temperature before reading. The FRET signal was measured at 340 nm excitation, 665 nm and 615 nm emission (for the kinase tracer and LanthaScreen Eu-AB, respectively) with an Envision spectrophotometer (Perkin Elmer, Waltham, Mass., USA) with 50 μs delay and 300 μs integration time. Kd values were determined from the sigmoidal dose response curves with the software Quattro Workflow (Quattro GmbH, Munich, Germany).
(Time-resolved FRET reads energy transfer from a long-lived donor to a nearby acceptor.)

Another assay concerns the target T2, CDK9 (Homo sapiens, UniProt P50750).
T2 construct: purchased Invitrogen
The experiment in a line: Lance Ultra KinaSelect Assay, CDK9. In kind it is biochemical. The settings on record: ULight MBP substrate; cyclin partner not stated in Table 5; read-out: CDK9 LANCE assay (activity range), IC50. The protocol:
This protocol describes how the Lance Ultra KinaSelect Assay was performed to determine half maximal inhibitory concentration (IC50) of compounds of general formula (I) and CDK/Cyclin complexes. The principle behind this enzymatic assay is based upon the phosphorylation of the ULight-Peptide Substrat. It is detected by using a specific EU-labeled anti-phospho peptide antibody. The binding of the Eu-labeled anti-phospho peptide antibody to the phosphorylated ULight labeled peptide gives rise to a FRET-signal. Binding of an inhibitor to the kinase prevents phosphorylation of the ULight-MBP Substrat, resulting in a loss of FRET.
The compounds of general formula (I) summarized in Table 5 were diluted from a 10 mM DMSO stock solution 1:10 in a total volume of 15 μL DMSO. This compound predilution was then serial diluted 1:3 over 8 steps in DMSO and briefly spun down. Each compound solution was now diluted 1:20 in Enzymatic Buffer (HEPES: 50 mM, pH: 7.5; MgCl2: 10 mM; EGTA: 1 mM; DTT: 2 mM; Tween-20: 0.01%), mixed thoroughly and spun down. For every sample, 2 μL of the diluted compound were mixed with 6 μL CDK/Cyclin/Substrat solution and 2 μL ATP solution in a well of a small volume 384 well plate (Corning Incorporated, Corning, N.Y., USA; order no. 3673). The CDK/Cyclin was diluted to the appropriate concentration (see Table 3) and the ATP concentration was adjusted to its […] for the CDK/Cyclin, which was 3 μM for CDK2/Cyclin A, 20 μM for CDK1/Cyclin B1, 25 μM for CDK7/Cyclin H and CDK9/Cyclin T1, 55 μM for CDK6/Cyclin D3, 90 μM for CDK4/Cyclin D1 and 125 μM for CDK9/Cyclin K. For negative controls, in each well 2 μL of DMSO solution (1% final DMSO assay concentration) was mixed with 6 μL substrate solution (50 nM ULight MBP final assay concentration) and 2 μL ATP solution (appropriate final concentration see Table 3). For positive controls, in each well 2 μL of DMSO solution (1% final DMSO assay concentration) was mixed with 6 μL CDK/Cyclin/Substrat (appropriate final concentration see Table 3) and 2 μL Tracer ATP solution (appropriate final concentration see Table 3). Positive and negative controls were calculated from at least 8 different sample wells. The 384 well plates were mixed in a Teleshaker plate mixer (Beckman Coulter, Brea, Calif., USA) at 2000 rpm for 40 sec, and incubated for 1 h at room temperature. Before reading, 10 μL the detection buffer (Lance Detection Buffer 1×; EDTA: […]; Eu-Anti-P-MBP: see Table 3) was added. The FRET signal was measured at 340 nm excitation, 665 nm and 615 nm emission (for the kinase tracer and LanthaScreen Eu-AB, respectively) with an Envision spectrophotometer (Perkin Elmer, Waltham, Mass., USA) with 50 μs delay and 300 μs integration time. IC50 values were determined from the sigmoidal dose response curves with the software Quattro Workflow (Quattro GmbH, Munich, Germany).

T1 sequence (P50750 whole entry): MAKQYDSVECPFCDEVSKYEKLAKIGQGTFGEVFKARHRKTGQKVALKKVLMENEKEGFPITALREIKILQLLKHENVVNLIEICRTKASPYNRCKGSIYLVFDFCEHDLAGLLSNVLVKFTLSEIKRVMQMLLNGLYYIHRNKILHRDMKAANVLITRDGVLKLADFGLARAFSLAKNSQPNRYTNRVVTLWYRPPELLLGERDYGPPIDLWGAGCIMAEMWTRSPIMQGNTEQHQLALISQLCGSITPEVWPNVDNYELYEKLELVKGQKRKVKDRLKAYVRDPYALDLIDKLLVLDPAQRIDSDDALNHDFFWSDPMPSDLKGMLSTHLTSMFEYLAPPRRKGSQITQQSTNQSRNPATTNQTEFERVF
T1 sequence (O60563 whole entry partner): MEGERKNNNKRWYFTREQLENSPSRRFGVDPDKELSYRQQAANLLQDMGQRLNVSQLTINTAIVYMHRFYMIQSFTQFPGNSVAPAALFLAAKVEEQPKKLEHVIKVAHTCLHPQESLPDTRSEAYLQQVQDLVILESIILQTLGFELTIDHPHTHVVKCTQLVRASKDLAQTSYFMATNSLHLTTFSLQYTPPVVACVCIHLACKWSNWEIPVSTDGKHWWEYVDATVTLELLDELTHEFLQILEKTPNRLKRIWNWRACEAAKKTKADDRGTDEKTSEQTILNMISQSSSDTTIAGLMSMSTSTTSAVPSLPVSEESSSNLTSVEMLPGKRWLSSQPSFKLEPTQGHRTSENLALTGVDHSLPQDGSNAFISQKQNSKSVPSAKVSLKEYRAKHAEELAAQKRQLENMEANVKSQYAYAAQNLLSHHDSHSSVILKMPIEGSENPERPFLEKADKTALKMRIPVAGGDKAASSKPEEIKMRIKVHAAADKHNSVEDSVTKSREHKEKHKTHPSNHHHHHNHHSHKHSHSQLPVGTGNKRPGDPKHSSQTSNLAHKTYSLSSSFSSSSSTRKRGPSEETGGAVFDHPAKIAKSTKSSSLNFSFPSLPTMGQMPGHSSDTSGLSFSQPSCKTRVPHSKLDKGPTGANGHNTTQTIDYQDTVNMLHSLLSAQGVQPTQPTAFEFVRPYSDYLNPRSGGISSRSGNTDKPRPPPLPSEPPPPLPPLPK
T2 sequence (P50750 whole entry): as the sequence (P50750 whole entry) above

With `COc1ccccc1-c1ccnc(Nc2ccccc2)c1` [Compound B1, 4-(2-Methoxyphenyl)-N-phenylpyridin-2-amine], on CDK9/Cyclin T1, the Kd lay within 1000 to 10000 nM. Moreover, the IC50 at CDK9 is 1000 to 10000 nM.

In the case of `COc1ccccc1-c1ccnc(Nc2cccc([N+](=O)[O-])c2)c1` [Compound C1, 4-(2-Methoxyphenyl)-N-(3-nitrophenyl)pyridin-2-amine], on CDK9/Cyclin T1, the Kd lay in the range of 100 to 1000 nM. Also, the IC50 at CDK9 was 1000 to 10000 nM.

For `COc1ccccc1-c1ccnc(Nc2cccc(S(N)(=O)=O)c2)c1` [Compound D1, 3-[(4-(2-Methoxyphenyl)pyridin-2-yl)amino]benzenesulfonamide], at CDK9/Cyclin T1, the Kd is under 100 nM. Further, the IC50 on CDK9 is under 100 nM.

Turning to `COc1ccccc1-c1ccnc(Nc2ccc(S(N)(=O)=O)cc2)c1` [Compound E1, 4-[(4-(2-Methoxyphenyl)pyridin-2-yl)amino]benzenesulfonamide], the Kd on CDK9/Cyclin T1 fell in the range of 100 to 1000 nM. Moreover, the IC50 at CDK9 fell in the range of 100 to 1000 nM.

As for `COc1ccccc1-c1ccnc(Nc2cccc(S(C)(=O)=O)c2)c1` [Compound F1, 4-(2-Methoxyphenyl)-N-(3-(methylsulfonyl)phenyl)pyridin-2-amine], on CDK9/Cyclin T1, the Kd is under 100 nM. On CDK9, the IC50 was under 100 nM.

Regarding `COc1cc(F)ccc1-c1ccnc(Nc2cccc(CS(N)(=O)=O)c2)c1` [Compound G1, [3-((4-(4-Fluoro-2-methoxyphenyl)pyridin-2-yl)amino)phenyl]-methanesulfonamide], the Kd on CDK9/Cyclin T1 is under 100 nM. The IC50 on CDK9 is under 100 nM.

For `COc1cc(F)ccc1-c1ccnc(Nc2cccc(CS(=O)(=O)N(C)C)c2)c1` [Compound G3, 1-[3-((4-(4-Fluoro-2-methoxyphenyl)pyridin-2-yl)amino)phenyl]-N,N-dimethylmethanesulfonamide], the Kd on CDK9/Cyclin T1 is under 100 nM. The IC50 on CDK9 was under 100 nM.

Consider `COc1cc(F)ccc1-c1ccnc(Nc2cccc(NS(C)(=O)=O)c2)c1` [Compound J1, N-[3-((4-(4-Fluoro-2-methoxyphenyl)pyridin-2-yl)amino)phenyl]-methanesulfonamide], for which the Kd at CDK9/Cyclin T1 is under 100 nM. The IC50 on CDK9 was under 100 nM.

For the compound `COc1cc(F)ccc1-c1ccnc(Nc2cccc(NC(C)=O)c2)c1` [Compound J2, N-[3-((4-(4-Fluoro-2-methoxyphenyl)pyridin-2-yl)amino)phenyl]-acetamide], on CDK9/Cyclin T1, the Kd was under 100 nM. Moreover, the IC50 at CDK9 was under 100 nM.

For `CCCNS(=O)(=O)Cc1cccc(Nc2cc(-c3ccc(F)cc3OC)ccn2)c1` [Compound K1, 1-[3-((4-(4-Fluoro-2-methoxyphenyl)pyridin-2-yl)amino)phenyl]-N-propylmethanesulfonamide], on CDK9/Cyclin T1, the Kd was under 100 nM. Further, the IC50 at CDK9 lay in the range of 100 to 1000 nM.

A word on the IC50: it is the concentration that inhibits the measured activity by half.
